Data published in PMC10266688 (PLOS ONE, 2023).

Key:
[1] = Plasma stability, human EDTA plasma; assay type: in vitro ADME; conditions: for % Drug Remaining, Plasma (Human EDTA): 10 μM, 37°C
[2] = test system: HMW polyUb proteins in ES2 cells; assay: Western blot for polyubiquitinated proteins; conditions: by 12 h
RPN13 = biological target: T1, RPN13 (Homo sapiens, UniProt Q16186); assay: Cellular Thermal Shift Assay (CETSA), SKOV3 cells; assay type: binding; conditions: SKOV3, 10 μM, 30 min, vs DMSO
T1 construct: endogenous in cells; host or cells: SKOV3 cells
T1 sequence (Q16186 whole entry): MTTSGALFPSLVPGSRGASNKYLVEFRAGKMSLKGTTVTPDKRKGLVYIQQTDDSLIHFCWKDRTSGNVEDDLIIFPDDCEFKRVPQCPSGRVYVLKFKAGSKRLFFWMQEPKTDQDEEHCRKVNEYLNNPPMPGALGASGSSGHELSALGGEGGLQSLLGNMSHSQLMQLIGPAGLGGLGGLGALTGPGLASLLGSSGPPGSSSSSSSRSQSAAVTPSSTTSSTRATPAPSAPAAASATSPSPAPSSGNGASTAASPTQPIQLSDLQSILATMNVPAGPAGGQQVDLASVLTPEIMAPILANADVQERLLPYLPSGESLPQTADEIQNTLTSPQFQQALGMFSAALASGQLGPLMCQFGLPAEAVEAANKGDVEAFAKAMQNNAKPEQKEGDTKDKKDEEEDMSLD
Method: Cells were incubated in a thermal cycler (Biorad IQ5 Cycler) over a gradient of temperatures for 4 min, followed by incubation at 25°C for 3 min, then snap-frozen in liquid nitrogen and subjected to three freeze–thaw cycles. Samples were briefly vortexed and centrifuged at 16,000 x g for 20 min at 4°C. Cleared cell lysates were resolved in SDS–PAGE followed by immunoblotting for RPN13, GAPDH, RPN2 and USP14.
Cellular Thermal Shift Assay (CETSA) assesses thermal stabilization of proteins upon ligand binding and is used extensively to detect drug interactions by implementing a thermal shift in the cellular context. The assay involves drug treatment of cells, heating to denature and precipitate proteins in a thermocycler with a specified gradient of temperatures, cell lysis by freeze/thaw cycles, and the separation of cell debris and aggregates from the soluble protein fraction by centrifugation. Whereas unbound proteins denature and precipitate at elevated temperatures, ligand-bound proteins remain in solution. The proportion of individual proteins remaining in solution can be detected by quantitative Western blotting. […]. There was no impact on other control proteins tested, including a house keeping protein (GAPDH) and proteasome subunits (RPN2 and USP14). […]
Resuspended cells were aliquoted into PCR strips. […]

[3] = Repeat IP dosing tolerability in Balb/c and C57BL/6 mice; assay type: in vivo; conditions: female Balb/c and C57BL/6 mice
SKOV3 cells = assay: MTT cytotoxicity assay, SKOV3 cells, 72 h; assay type: cell-based; conditions: Homo sapiens, SK-OV-3; 72 h treatment

For `N#Cc1ccc(/C=C2/C(=O)/C(=C/c3ccc(C#N)cc3)C23CCNCC3)cc1` [Up284], the “% Drug Remaining, Plasma (Human EDTA)” value ([1]; 0 min) was 100%, the “% Drug Remaining, Plasma (Human EDTA)” value ([1]; 30 min) was 100% and the “% Drug Remaining, Plasma (Human EDTA)” value ([1]; 60 min) was 90%. For the same compound, the “degradation in human plasma” value ([1]; after incubating for 1 hour) was < 10%, the “accumulation of HMW polyUb proteins” value [2] was “profound accumulation” and the “thermal stabilization of RPN13” value (RPN13) was “stabilized”. The “tolerability of 60 mg/kg IP every third day” value [3] was “toxic”, the MTD ([3]; mouse, in vivo, ip, read-out: MTD after 3 doses, IP delivery every third day) was 40 mg/kg and the IC50 (SKOV3 cells) was 0.071 µM.
